Broadly, the IC50 is the concentration at which inhibition is half-maximal.

Some results are limits rather than exact numbers.

Here are results for 45 compounds from ChEMBL document CHEMBL5236596, “Discovery and Optimization of N-Acyl-6-sulfonamide-tetrahydroquinoline Derivatives as Novel Non-Steroidal Selective Glucocorticoid Receptor Modulators” (J Med Chem, 2022).

In test [1] the target is T1, Glucocorticoid receptor (Homo sapiens, UniProt P04150).
T1 sequence (P04150 whole entry): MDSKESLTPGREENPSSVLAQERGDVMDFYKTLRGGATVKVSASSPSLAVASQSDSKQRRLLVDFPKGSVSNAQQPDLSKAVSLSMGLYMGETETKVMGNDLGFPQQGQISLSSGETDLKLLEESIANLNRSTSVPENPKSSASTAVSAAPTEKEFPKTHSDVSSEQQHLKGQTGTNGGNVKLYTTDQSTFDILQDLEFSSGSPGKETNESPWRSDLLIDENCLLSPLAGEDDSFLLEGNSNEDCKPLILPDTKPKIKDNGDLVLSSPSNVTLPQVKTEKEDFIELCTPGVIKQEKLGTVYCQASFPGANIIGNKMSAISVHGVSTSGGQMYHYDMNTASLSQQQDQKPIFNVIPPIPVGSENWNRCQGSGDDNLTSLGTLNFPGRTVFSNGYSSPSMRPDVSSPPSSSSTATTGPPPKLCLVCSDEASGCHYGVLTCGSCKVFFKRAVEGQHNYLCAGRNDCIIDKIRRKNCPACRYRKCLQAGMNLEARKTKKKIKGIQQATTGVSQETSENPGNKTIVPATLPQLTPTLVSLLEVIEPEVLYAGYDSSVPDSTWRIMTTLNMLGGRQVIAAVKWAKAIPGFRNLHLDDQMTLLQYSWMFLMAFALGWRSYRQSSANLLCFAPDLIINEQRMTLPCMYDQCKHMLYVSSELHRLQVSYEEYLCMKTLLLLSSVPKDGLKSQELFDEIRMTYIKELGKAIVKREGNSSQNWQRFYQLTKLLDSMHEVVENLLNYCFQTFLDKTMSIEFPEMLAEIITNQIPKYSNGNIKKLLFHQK
Put plainly: Modulation of glucocorticoid receptor (unknown origin) transfected in human HeLa cells assessed as transrepression by measuring inhibition of TNF-alpha induced NF-kappaB signalling incubated for 18 hrs by dual-luciferase reporter based assay. The test is classed as cell-based. A general note: Reporter assays use an easily measured gene product as a stand-in for the process of interest.

Test [2] has as its target T1, Glucocorticoid receptor. Put plainly: Modulation of glucocorticoid receptor (unknown origin) transfected in human HeLa cells assessed as transrepression by measuring inhibition of PMA-induced AP-1 signalling incubated for 18 hrs by dual-luciferase reporter based assay. The test is classed as cell-based.
In test [3] the target is T1, Glucocorticoid receptor. Put plainly: Binding affinity to glucocorticoid receptor (unknown origin) by Lanthascreen TR-FRET competition binding assay. (In general: In TR-FRET formats the signal depends on donor and acceptor labels being close together.)

For `COc1cc(C)c(Cl)cc1S(=O)(=O)Nc1ccc2c(c1)CCCN2C(=O)c1ccc(C)cc1F`, the IC50 at Glucocorticoid receptor [1] and at Glucocorticoid receptor [2] was more than 10 µM in each case.
Consider `Cc1ccc(S(=O)(=O)N(c2ccc3c(c2)CCCN3C(=O)c2ccco2)S(=O)(=O)c2ccc(C)cc2)cc1`, for which the figures for the IC50 at Glucocorticoid receptor [3], on Glucocorticoid receptor [1] and at Glucocorticoid receptor [2] were more than 50 µM, 0.09 µM and 0.33 µM, respectively.
As for `O=C(c1ccco1)N1CCCc2cc(NS(=O)(=O)c3ccc(F)cc3)ccc21`, the IC50 at Glucocorticoid receptor [1] and on Glucocorticoid receptor [2] was more than 10 µM each time.
`O=C(c1ccco1)N1CCCc2cc(NS(=O)(=O)c3ccc(-c4ccccc4)cc3)ccc21`: the IC50 at Glucocorticoid receptor [3] was 0.09 µM; on Glucocorticoid receptor [1], 0.81 µM; on Glucocorticoid receptor [2] it was 7.22 µM.
`O=C(c1ccco1)N1CCCc2cc(N(S(=O)(=O)c3cccnc3)S(=O)(=O)c3cccnc3)ccc21`: the IC50 is more than 10 µM on Glucocorticoid receptor [1] and more than 50 µM at Glucocorticoid receptor [2].
Consider `COC(=O)c1ccc(C(=O)N2CCCc3cc(NS(=O)(=O)c4cc(Cl)c(C)cc4OC)ccc32)cc1`, for which the IC50 on Glucocorticoid receptor [3] was more than 50 µM; at Glucocorticoid receptor [1], 0.71 µM; at Glucocorticoid receptor [2], 2.72 µM.
For the compound `O=C(c1ccco1)N1CCCc2cc(N(S(=O)(=O)c3ccc(C(F)(F)F)cc3)S(=O)(=O)c3ccc(C(F)(F)F)cc3)ccc21`, the IC50 at Glucocorticoid receptor [1] and at Glucocorticoid receptor [2] was more than 50 µM each time.
For the compound `CN(C)c1cccc2c(S(=O)(=O)Nc3ccc4c(c3)CCCN4C(=O)c3ccco3)cccc12`, the values for the IC50 at Glucocorticoid receptor [3], at Glucocorticoid receptor [1] and at Glucocorticoid receptor [2] were more than 50 µM, 0.21 µM and 1.67 µM, respectively.
The matching figures for `COc1cc(C)c(Cl)cc1S(=O)(=O)Nc1ccc2c(c1)CCCN2C(=O)c1ncccn1`: more than 50 µM, 0.13 µM and 1.17 µM.
Take `O=C(c1ccco1)N1CCCc2cc(NS(=O)(=O)c3ccc4c(c3)CCO4)ccc21`: the IC50 at Glucocorticoid receptor [3] came to 1.97 µM; at Glucocorticoid receptor [1], 1.32 µM; on Glucocorticoid receptor [2], 5.04 µM.
For `COc1cc(C)c(Cl)cc1S(=O)(=O)Nc1ccc2c(c1)CCCN2C(=O)c1ccc(C(F)(F)F)cc1` the same measures were 2.22 µM, 0.3 µM and 3.33 µM.
Consider `O=C(c1ccco1)N1CCCc2cc(N(S(=O)(=O)c3ccc(Cl)cc3)S(=O)(=O)c3ccc(Cl)cc3)ccc21`, for which the IC50 was more than 50 µM on Glucocorticoid receptor [3], 0.45 µM on Glucocorticoid receptor [1] and 3.96 µM at Glucocorticoid receptor [2].
The matching figures for `O=C(c1ccco1)N1CCCc2cc(NS(=O)(=O)c3ccccc3)ccc21`: 1.92 µM, 3.99 µM and 3.83 µM.
The matching figures for `CCCCS(=O)(=O)N(c1ccc2c(c1)CCCN2C(=O)c1ccco1)S(=O)(=O)CCCC`: more than 50 µM, 1.79 µM and 2.84 µM.
The matching figures for `COc1cc(C)c(C)cc1S(=O)(=O)Nc1ccc2c(c1)CCCN2C(=O)C1CCCCC1`: more than 50 µM, 4.61 µM and more than 10 µM.
With `COc1cc(C)c(Cl)cc1S(=O)(=O)Nc1ccc2c(c1)CCCN2C(=O)c1ccncc1`, the IC50 at Glucocorticoid receptor [3] was more than 50 µM; on Glucocorticoid receptor [1], 0.02 µM; on Glucocorticoid receptor [2] it was 0.55 µM.
For `COc1cc(C)c(Cl)cc1S(=O)(=O)Nc1ccc2c(c1)CCCN2C(=O)c1ccc(C)cc1` the same measures were more than 50 µM, 0.08 µM and 1.11 µM.
On to `N#Cc1ccc(S(=O)(=O)N(c2ccc3c(c2)CCCN3C(=O)c2ccco2)S(=O)(=O)c2ccc(C#N)cc2)cc1`, for which the IC50 at Glucocorticoid receptor [3] was more than 30 µM; at Glucocorticoid receptor [1], more than 10 µM; on Glucocorticoid receptor [2], 3.15 µM.
With `O=C(c1ccco1)N1CCCc2cc(NS(=O)(=O)c3cccs3)ccc21`, the IC50 was more than 50 µM on Glucocorticoid receptor [3], more than 10 µM on Glucocorticoid receptor [1] and 9.26 µM on Glucocorticoid receptor [2].
The matching figures for `O=C(c1ccco1)N1CCCc2cc(N(S(=O)(=O)c3ccc4c(c3)CCCC4)S(=O)(=O)c3ccc4c(c3)CCCC4)ccc21`: more than 50 µM, 0.7 µM and 7.99 µM.
For the compound `COC(=O)c1ccc(S(=O)(=O)N(c2ccc3c(c2)CCCN3C(=O)c2ccco2)S(=O)(=O)c2ccc(C(=O)OC)cc2)cc1`, the results for the IC50 at Glucocorticoid receptor [1] and at Glucocorticoid receptor [2] were more than 50 µM and more than 10 µM, respectively.
With `O=C(c1ccco1)N1CCCc2cc(NS(=O)(=O)c3ccc([N+](=O)[O-])cc3)ccc21`, the values for the IC50 at Glucocorticoid receptor [3], on Glucocorticoid receptor [1] and at Glucocorticoid receptor [2] were more than 50 µM, 3.62 µM and 4.27 µM, respectively.
The matching figures for `CCCCc1ccc(S(=O)(=O)Nc2ccc3c(c2)CCCN3C(=O)c2ccco2)cc1`: 7.16 µM, 1.15 µM and 3.69 µM.
In the case of `O=C(c1ccco1)N1CCCc2cc(N(S(=O)(=O)c3ccccc3)S(=O)(=O)c3ccccc3)ccc21`, the IC50 at Glucocorticoid receptor [3] is more than 50 µM; at Glucocorticoid receptor [1] it was 0.39 µM; at Glucocorticoid receptor [2], 0.62 µM.
`O=C(c1ccco1)N1CCCc2cc(NS(=O)(=O)c3ccc(C(F)(F)F)cc3)ccc21`: the IC50 was more than 50 µM at Glucocorticoid receptor [3], 2.62 µM at Glucocorticoid receptor [1] and 3.22 µM at Glucocorticoid receptor [2].
For `O=C(c1ccco1)N1CCCc2cc(NS(=O)(=O)c3ccc4c(c3)CCCC4)ccc21` the same measures were 1.22 µM, 0.32 µM and 4.07 µM.
Regarding `O=C(c1ccco1)N1CCCc2cc(NS(=O)(=O)c3ccc4ccccc4c3)ccc21`, the IC50 on Glucocorticoid receptor [3] was 1.12 µM; on Glucocorticoid receptor [1] it was 0.19 µM; at Glucocorticoid receptor [2], 2.08 µM.
The matching figures for `COc1cc(C)c(Cl)cc1S(=O)(=O)Nc1ccc2c(c1)CCCN2C(=O)c1cccs1`: 1.14 µM, 0.17 µM and 1.36 µM.
For `COc1cccc(Cl)c1S(=O)(=O)Nc1ccc2c(c1)CCCN2C(=O)c1ccco1`, the IC50 on Glucocorticoid receptor [1] and at Glucocorticoid receptor [2] was more than 10 µM throughout.
As to `COc1ccc(C(=O)N2CCCc3cc(NS(=O)(=O)c4cc(Cl)c(C)cc4OC)ccc32)cc1OC`, the IC50 on Glucocorticoid receptor [3] worked out at 3.43 µM; on Glucocorticoid receptor [1] it was 0.45 µM; on Glucocorticoid receptor [2] it was 1.32 µM.
In the case of `C#CC1=C(SCC(=O)c2ccccc2)NC(C)=C(C(C)=O)C1c1cccs1` (stereo unspecified), the IC50 at Glucocorticoid receptor [3] is 1.86 µM.
On to `COc1cc(C)c(Cl)cc1S(=O)(=O)Nc1ccc2c(c1)CCCN2C(=O)C1CCCCC1`, for which the values for the IC50 at Glucocorticoid receptor [3], on Glucocorticoid receptor [1] and on Glucocorticoid receptor [2] were more than 50 µM, 0.58 µM and more than 10 µM, respectively.
As to `O=C(c1ccco1)N1CCCc2cc(N(S(=O)(=O)c3ccc(F)cc3)S(=O)(=O)c3ccc(F)cc3)ccc21`, the IC50 at Glucocorticoid receptor [3] is more than 50 µM; on Glucocorticoid receptor [1], 0.84 µM; on Glucocorticoid receptor [2] it was 2.25 µM.
With `O=C(c1ccco1)N1CCCc2cc(NS(=O)(=O)c3ccc(Cl)c([N+](=O)[O-])c3)ccc21`, the figures for the IC50 at Glucocorticoid receptor [3], at Glucocorticoid receptor [1] and at Glucocorticoid receptor [2] were 0.59 µM, 0.26 µM and 1 µM, respectively.
For `O=C(c1ccco1)N1CCCc2cc(N(S(=O)(=O)c3cc4ccccc4s3)S(=O)(=O)c3cc4ccccc4s3)ccc21` the same measures were more than 50 µM, 0.43 µM and 3.19 µM.
`CCS(=O)(=O)N(c1ccc2c(c1)CCCN2C(=O)c1ccco1)S(=O)(=O)CC`: the IC50 on Glucocorticoid receptor [1] and at Glucocorticoid receptor [2] was more than 50 µM in each case.
In the case of `COc1cc(C)c(Cl)cc1S(=O)(=O)Nc1ccc2c(c1)CCCN2C(=O)c1ccc(Cl)cc1`, the IC50 on Glucocorticoid receptor [3] was determined as 2.07 µM; on Glucocorticoid receptor [1] it was 0.1 µM; on Glucocorticoid receptor [2], 1.81 µM.
Turning to `N#Cc1ccc(S(=O)(=O)Nc2ccc3c(c2)CCCN3C(=O)c2ccco2)cc1`, the IC50 at Glucocorticoid receptor [1] and at Glucocorticoid receptor [2] was more than 10 µM throughout.
With `O=C(c1ccco1)N1CCCc2cc(N(S(=O)(=O)c3ccc([N+](=O)[O-])cc3)S(=O)(=O)c3ccc([N+](=O)[O-])cc3)ccc21`, the values for the IC50 on Glucocorticoid receptor [3], on Glucocorticoid receptor [1] and on Glucocorticoid receptor [2] were more than 50 µM, 2.66 µM and 4.8 µM, respectively.
With `O=C(c1ccco1)N1CCCc2cc(N(S(=O)(=O)c3cccs3)S(=O)(=O)c3cccs3)ccc21`, the IC50 is more than 50 µM at Glucocorticoid receptor [3], 1.05 µM on Glucocorticoid receptor [1] and 2.86 µM on Glucocorticoid receptor [2].
The matching figures for `COc1cc(C)c(C)cc1S(=O)(=O)Nc1ccc2c(c1)CCCN2C(=O)C1CC1`: 7.5 µM, 0.1 µM and 0.36 µM.
Take `O=C(c1ccco1)N1CCCc2cc(N(S(=O)(=O)c3ccc(Br)cc3)S(=O)(=O)c3ccc(Br)cc3)ccc21`: the figures for the IC50 at Glucocorticoid receptor [1] and at Glucocorticoid receptor [2] were more than 10 µM and more than 25 µM, respectively.
For `NC(=O)c1ccc(S(=O)(=O)Nc2ccc3c(c2)CCCN3C(=O)c2ccco2)cc1` the same measures were more than 10 µM and more than 10 µM.
`CC(C)(C)c1ccc(S(=O)(=O)N(c2ccc3c(c2)CCCN3C(=O)c2ccco2)S(=O)(=O)c2ccc(C(C)(C)C)cc2)cc1`: the IC50 on Glucocorticoid receptor [1] and at Glucocorticoid receptor [2] was more than 10 µM in each case.
Take `O=C(c1ccco1)N1CCCc2cc(N(S(=O)(=O)Cc3ccccc3)S(=O)(=O)Cc3ccccc3)ccc21`: the half-inhibitory concentration (IC50) at Glucocorticoid receptor [1] and on Glucocorticoid receptor [2] was more than 50 µM throughout.
